Results reported in the NIST ThermoML archive (doi:10.1016/j.fluid.2012.11.013).
Numbers after ± are expanded uncertainties.

Conditions: Liquid, Vibrating tube method

CCC(C)CC [3-methylpentane] gave a mass density (283.15 K, 100 kPa) of 673.34 ± 0.3 kg/m3, a mass density (283.15 K, 2000 kPa) of 675.33 ± 0.32 kg/m3 and a mass density (283.15 K, 5000 kPa) of 678.2 ± 0.35 kg/m3. For the same compound, the mass density (283.15 K, 7000 kPa) was 680.08 ± 0.36 kg/m3, the mass density (283.15 K, 10000 kPa) was 682.8 ± 0.39 kg/m3 and the mass density (283.15 K, 20000 kPa) was 691.21 ± 0.49 kg/m3. It also gave a mass density (283.15 K, 30000 kPa) of 698.81 ± 0.59 kg/m3, a mass density (283.15 K, 40000 kPa) of 705.94 ± 0.7 kg/m3 and a mass density (283.15 K, 50000 kPa) of 712.39 ± 0.8 kg/m3. It also gave a mass density (283.15 K, 60000 kPa) of 718.5 ± 0.9 kg/m3, a mass density (283.15 K, 65000 kPa) of 721.33 ± 0.94 kg/m3 and a mass density (288.15 K, 100 kPa) of 668.91 ± 0.3 kg/m3. The mass density (288.15 K, 2000 kPa) was 670.93 ± 0.32 kg/m3, the mass density (288.15 K, 5000 kPa) was 673.95 ± 0.35 kg/m3 and the mass density (288.15 K, 7000 kPa) was 675.9 ± 0.37 kg/m3. It also gave a mass density (288.15 K, 10000 kPa) of 678.66 ± 0.39 kg/m3, a mass density (288.15 K, 20000 kPa) of 687.28 ± 0.49 kg/m3 and a mass density (288.15 K, 30000 kPa) of 695.19 ± 0.6 kg/m3. The mass density (288.15 K, 40000 kPa) was 702.32 ± 0.71 kg/m3, the mass density (288.15 K, 50000 kPa) was 708.77 ± 0.81 kg/m3 and the mass density (288.15 K, 60000 kPa) was 715.04 ± 0.9 kg/m3. For the same compound, the mass density (288.15 K, 65000 kPa) was 718.14 ± 0.95 kg/m3, the mass density (293.15 K, 100 kPa) was 664.28 ± 0.3 kg/m3 and the mass density (293.15 K, 2000 kPa) was 666.4 ± 0.32 kg/m3. The mass density (293.15 K, 5000 kPa) was 669.49 ± 0.35 kg/m3, the mass density (293.15 K, 7000 kPa) was 671.54 ± 0.37 kg/m3 and the mass density (293.15 K, 10000 kPa) was 674.41 ± 0.4 kg/m3. It also gave a mass density (293.15 K, 20000 kPa) of 683.39 ± 0.49 kg/m3, a mass density (293.15 K, 30000 kPa) of 691.45 ± 0.6 kg/m3 and a mass density (293.15 K, 40000 kPa) of 698.72 ± 0.71 kg/m3. For the same compound, the mass density (293.15 K, 50000 kPa) was 705.44 ± 0.81 kg/m3, the mass density (293.15 K, 60000 kPa) was 711.72 ± 0.91 kg/m3 and the mass density (293.15 K, 65000 kPa) was 714.81 ± 0.96 kg/m3. It also gave a mass density (298.15 K, 100 kPa) of 659.73 ± 0.3 kg/m3, a mass density (298.15 K, 2000 kPa) of 661.91 ± 0.32 kg/m3 and a mass density (298.15 K, 5000 kPa) of 665.13 ± 0.35 kg/m3. It also gave a mass density (298.15 K, 7000 kPa) of 667.22 ± 0.37 kg/m3, a mass density (298.15 K, 10000 kPa) of 670.25 ± 0.4 kg/m3 and a mass density (298.15 K, 20000 kPa) of 679.53 ± 0.49 kg/m3. It also gave a mass density (298.15 K, 30000 kPa) of 687.73 ± 0.61 kg/m3, a mass density (298.15 K, 40000 kPa) of 695.4 ± 0.72 kg/m3 and a mass density (298.15 K, 50000 kPa) of 702.25 ± 0.82 kg/m3. The mass density (298.15 K, 60000 kPa) was 708.63 ± 0.92 kg/m3, the mass density (298.15 K, 65000 kPa) was 711.62 ± 0.97 kg/m3 and the mass density (303.15 K, 100 kPa) was 655.07 ± 0.3 kg/m3. For the same compound, the mass density (303.15 K, 2000 kPa) was 657.33 ± 0.32 kg/m3, the mass density (303.15 K, 5000 kPa) was 660.71 ± 0.35 kg/m3 and the mass density (303.15 K, 7000 kPa) was 662.86 ± 0.37 kg/m3. The mass density (303.15 K, 10000 kPa) was 666 ± 0.4 kg/m3, the mass density (303.15 K, 20000 kPa) was 675.49 ± 0.5 kg/m3 and the mass density (303.15 K, 30000 kPa) was 683.96 ± 0.61 kg/m3. It also gave a mass density (303.15 K, 40000 kPa) of 691.63 ± 0.72 kg/m3, a mass density (303.15 K, 50000 kPa) of 698.64 ± 0.83 kg/m3 and a mass density (303.15 K, 60000 kPa) of 705.24 ± 0.93 kg/m3. The mass density (303.15 K, 65000 kPa) was 708.41 ± 0.98 kg/m3, the mass density (308.15 K, 100 kPa) was 650.44 ± 0.31 kg/m3 and the mass density (308.15 K, 2000 kPa) was 652.85 ± 0.32 kg/m3. It also gave a mass density (308.15 K, 5000 kPa) of 656.28 ± 0.35 kg/m3, a mass density (308.15 K, 7000 kPa) of 658.61 ± 0.37 kg/m3 and a mass density (308.15 K, 10000 kPa) of 661.77 ± 0.4 kg/m3. For the same compound, the mass density (308.15 K, 20000 kPa) was 671.68 ± 0.5 kg/m3, the mass density (308.15 K, 30000 kPa) was 680.42 ± 0.62 kg/m3 and the mass density (308.15 K, 40000 kPa) was 688.33 ± 0.73 kg/m3. It also gave a mass density (308.15 K, 50000 kPa) of 695.51 ± 0.83 kg/m3, a mass density (308.15 K, 60000 kPa) of 702.1 ± 0.94 kg/m3 and a mass density (308.15 K, 65000 kPa) of 705.28 ± 0.99 kg/m3. The mass density (313.15 K, 100 kPa) was 645.7 ± 0.31 kg/m3, the mass density (313.15 K, 2000 kPa) was 648.1 ± 0.32 kg/m3 and the mass density (313.15 K, 5000 kPa) was 651.77 ± 0.35 kg/m3. For the same compound, the mass density (313.15 K, 7000 kPa) was 654.13 ± 0.37 kg/m3, the mass density (313.15 K, 10000 kPa) was 657.53 ± 0.4 kg/m3 and the mass density (313.15 K, 20000 kPa) was 667.66 ± 0.51 kg/m3. It also gave a mass density (313.15 K, 30000 kPa) of 676.56 ± 0.62 kg/m3, a mass density (313.15 K, 40000 kPa) of 684.59 ± 0.73 kg/m3 and a mass density (313.15 K, 50000 kPa) of 692.01 ± 0.84 kg/m3. The mass density (313.15 K, 60000 kPa) was 698.74 ± 0.94 kg/m3, the mass density (313.15 K, 65000 kPa) was 702.04 ± 0.99 kg/m3 and the mass density (318.15 K, 100 kPa) was 640.93 ± 0.31 kg/m3. The mass density (318.15 K, 2000 kPa) was 643.46 ± 0.32 kg/m3, the mass density (318.15 K, 5000 kPa) was 647.27 ± 0.35 kg/m3 and the mass density (318.15 K, 7000 kPa) was 649.71 ± 0.37 kg/m3. It also gave a mass density (318.15 K, 10000 kPa) of 653.27 ± 0.4 kg/m3, a mass density (318.15 K, 20000 kPa) of 663.74 ± 0.51 kg/m3 and a mass density (318.15 K, 30000 kPa) of 672.89 ± 0.63 kg/m3. The mass density (318.15 K, 40000 kPa) was 681.17 ± 0.74 kg/m3, the mass density (318.15 K, 50000 kPa) was 688.56 ± 0.85 kg/m3 and the mass density (318.15 K, 60000 kPa) was 695.68 ± 0.95 kg/m3. The mass density (318.15 K, 65000 kPa) was 699.05 ± 1 kg/m3, the mass density (323.15 K, 100 kPa) was 636.14 ± 0.31 kg/m3 and the mass density (323.15 K, 2000 kPa) was 638.83 ± 0.33 kg/m3. For the same compound, the mass density (323.15 K, 5000 kPa) was 642.73 ± 0.35 kg/m3, the mass density (323.15 K, 7000 kPa) was 645.26 ± 0.38 kg/m3 and the mass density (323.15 K, 10000 kPa) was 648.88 ± 0.41 kg/m3. The mass density (323.15 K, 20000 kPa) was 659.72 ± 0.51 kg/m3, the mass density (323.15 K, 30000 kPa) was 669.28 ± 0.63 kg/m3 and the mass density (323.15 K, 40000 kPa) was 677.73 ± 0.75 kg/m3. For the same compound, the mass density (323.15 K, 50000 kPa) was 685.39 ± 0.86 kg/m3, the mass density (323.15 K, 60000 kPa) was 692.42 ± 0.96 kg/m3 and the mass density (323.15 K, 65000 kPa) was 695.87 ± 1 kg/m3. It also gave a mass density (328.15 K, 100 kPa) of 631.22 ± 0.31 kg/m3, a mass density (328.15 K, 2000 kPa) of 634.03 ± 0.33 kg/m3 and a mass density (328.15 K, 5000 kPa) of 638.2 ± 0.36 kg/m3. For the same compound, the mass density (328.15 K, 7000 kPa) was 640.84 ± 0.38 kg/m3, the mass density (328.15 K, 10000 kPa) was 644.64 ± 0.41 kg/m3 and the mass density (328.15 K, 20000 kPa) was 655.85 ± 0.52 kg/m3. It also gave a mass density (328.15 K, 30000 kPa) of 665.6 ± 0.64 kg/m3, a mass density (328.15 K, 40000 kPa) of 674.39 ± 0.75 kg/m3 and a mass density (328.15 K, 50000 kPa) of 682.22 ± 0.86 kg/m3. For the same compound, the mass density (328.15 K, 60000 kPa) was 689.42 ± 0.97 kg/m3 and the mass density (328.15 K, 65000 kPa) was 692.79 ± 1 kg/m3.
